Experimental data from paper PMC9103660, “Two Novel Antihypertensive Peptides Identified in Millet Bran Glutelin-2 Hydrolysates: Purification, In Silico Characterization, Molecular Docking with ACE and Stability in Various Food Processing Conditions” (Foods, 2022).
Entries after “also recorded” stand apart in the source; their conditions may differ. Peptide text beside a SMILES is read from it.

Experiments:
ACE [1] = experiment: ACE inhibition after simulated gastrointestinal digestion; format: in vitro ADME; conditions: simulated gastric fluid (pepsin, pH 2.0) 90 min then simulated intestinal fluid (trypsin, bile salt, pH 6.8) 180 min, 37 °C, peptide 1 mg/mL; read-out ACE IC50 before/after
Protocol: As per the same procedure described by Jimsheena and Gowda, the inhibition of ACE was evaluated by comparing the quantity of produced hippuric acid before and after the addition of the peptides. The IC50 value was calculated from the regression equation of ACE inhibition percentage for different concentrations of the sample and defined as the concentration of sample inhibiting ACE activity by 50%.
Mixtures of trypsin (0.45 g), pig bile salt (3 g) and NaHCO3 (6.25 g) dissolved in 100 mL of dH2O (pH 6.8) were used to simulate the intestinal fluid, whereas pepsin (40 mg) and NaCl (0.877 g) dissolved in 100 mL of dH2O (pH 2.0) were used to simulate the gastric fluid (Sun et al., 2021). Peptide solutions (dissolved in ultrapure water, 1 mg/mL) were incubated at 37 °C in a stirring bath (140 r/min) for 15 min, and then the simulated gastric fluid was added (gastric fluid: peptide solution = 1: 10 v/v), and the mixture was further incubated at 37 °C (140 r/min) for 90 min. Then, the reaction solution was adjusted to pH 6.8 with Na2HPO4. The simulated intestinal fluid (the fluid: peptide solution = 1: 10, v/v) was added, and the mixture was stirred (140 r/min) at 37 °C for 180 min. All reaction solutions were heated at 100 °C for 8 min to inactivate the enzymes. The ACE inhibition activities of the peptides before and after digestion were separately determined to evaluate their stability.

[2] = proline-rich literature peptides; cited from earlier work
Description: ACE-inhibitory peptides should have sufficient resistance to digestion by proteases existing in the gastrointestinal tract to exert antihypertension activity in the body.

ACE [3] = system: ACE; set-up: method as in 2 sources, ref 34, 35 = [34]; PMID 32220144; doi:10.1111/1750-3841.15115; 34. Zheng Y.J. Wang X. Zhuang Y.L. Li Y. Shi P.Q. Tian H.L. Li X.T. Chen X. Isolation of novel ACE-inhibitory peptide from naked oat globulin hydrolysates in silico approach: Molecular docking, in viv || [35]; PMID 29606478; doi:10.1016/j.foodchem.2018.02.107; 35. Tu M. Wang C. Chen C. Zhang R. Liu H. Lu W. Jiang L. Du M. Identification of a novel ACE-inhibitory peptide from casein and evaluation of the inhibitory mechanisms Food Chem. 2018 256 98 104 10.10 ||| ref 20 = [20]; doi:10.1016/j.jff.2016.11.021; 20. Zheng Y.J. Li Y. Zhang Y.L. Ruan X.H. Zhang R.G. Purification, characterization, synthesis, in vivo ACE inhibition and in vitro antihypertensive activity of bioactive peptides derived from palm ke; conditions: cited from earlier work; for IC50: literature peptides, read-out: IC50 (ACE inhibition)

Row | Molecule | stability during simulated gastrointestinal digestion (ACE [1]) | stability during gastrointestinal digestion [2] | inhibition mode towards ACE (ACE [3]) | IC50 (ACE [3])
1 | CC(C)C[C@H](NC(=O)[C@H](CC(C)C)NC(=O)[C@@H]1CCCN1)C(=O)N[C@@H](CCCCN)C(=O)O [PLLK, Pro-Leu-Leu-Lys] (H-PLLK-OH) | resistant; also recorded: relatively stable; also recorded: relatively high stability | – | – | –
2 | CSCC[C@H](NC(=O)[C@@H]1CCCN1C(=O)[C@@H]1CCCN1)C(=O)N[C@@H](Cc1c[nH]c2ccccc12)C(=O)N1CCC[C@H]1C(=O)N[C@@H](Cc1ccccc1)C(=O)N[C@H](C(=O)O)C(C)C [PPMWPFV, Pro-Pro-Met-Trp-Pro-Phe-Val] (H-PPMWPFV-OH) | resistant; also recorded: relatively stable; also recorded: relatively high stability | – | – | –
3 | LHPQ [proline-rich peptide identified in canary seeds] | – | excellent stability | – | –
4 | NMAINPSKENLCSTFCK | – | – | a competitive inhibitor of ACE | 129 µM
5 | ELHPQ [proline-rich peptide identified in canary seeds] | – | excellent stability | – | –
6 | SSYYPFK | – | excellent stability | a competitive inhibitor | 91.8 µM
7 | KPVPR [proline-rich peptide identified in canary seeds] | – | excellent stability | – | –
